The nature of this data set: Solubility of the THz molecular tags in various solvents. In kind it is physicochemical.

This is an account of results in patent publication US10464929B2, “Organic molecules for terahertz tagging applications” (Council of Scientific & Industrial Research, priority 2014, dated 2019).

Consider `O=C(NCCNC(=O)Nc1ccccc1)Nc1ccccc1` [PhU—C2—UPh, 1,1′-(ethane-1,2-diyl)bis(3-phenylurea)], for which, under “solvent THF (tetrahydrofuran)”, the “Solubility in THF” value was “Turbid”.
Regarding `O=C(Nc1ccccc1)Nc1cccc(NC(=O)c2ccccc2)n1` [PhU—Ph—AP, N-(6-(3-phenylureido)pyridin-2-yl)benzamide], for the setting “solvent Diethyl Ether”, the “Solubility in Diethyl Ether” value was “Turbid”. Moreover, for the setting “solvent Toluene”, the “Solubility in Toluene” value is “Turbid”.
